Values quoted from earlier work as cited in US20200397820A1, “Glycerol Release Promoter” (KOHAKU BIO TECHNOLOGY CO., LTD., priority 2018, published 2020).

System: cultured adipocytes
Details: Patent Literature 10

**Q.** With `C[C@@]12C[C@@]3(O)O[C@@H](O1)[C@]1(COC(=O)c4ccccc4)[C@H]3C[C@@]12O[C@@H]1O[C@H](CO)[C@@H](O)[C@H](O)[C@H]1O` [Paeoniflorin] as the compound, how does the “release of glycerol into the culture medium” value read?
**A.** The value was “promotes the release of glycerol”.
